The source made the active and inactive calls. The rule behind the calls is not given here.

For series [1], the target named is T1, Nuclear factor erythroid 2-related factor 2 (Homo sapiens) (UniProt Q16236).
T1 sequence (whole entry): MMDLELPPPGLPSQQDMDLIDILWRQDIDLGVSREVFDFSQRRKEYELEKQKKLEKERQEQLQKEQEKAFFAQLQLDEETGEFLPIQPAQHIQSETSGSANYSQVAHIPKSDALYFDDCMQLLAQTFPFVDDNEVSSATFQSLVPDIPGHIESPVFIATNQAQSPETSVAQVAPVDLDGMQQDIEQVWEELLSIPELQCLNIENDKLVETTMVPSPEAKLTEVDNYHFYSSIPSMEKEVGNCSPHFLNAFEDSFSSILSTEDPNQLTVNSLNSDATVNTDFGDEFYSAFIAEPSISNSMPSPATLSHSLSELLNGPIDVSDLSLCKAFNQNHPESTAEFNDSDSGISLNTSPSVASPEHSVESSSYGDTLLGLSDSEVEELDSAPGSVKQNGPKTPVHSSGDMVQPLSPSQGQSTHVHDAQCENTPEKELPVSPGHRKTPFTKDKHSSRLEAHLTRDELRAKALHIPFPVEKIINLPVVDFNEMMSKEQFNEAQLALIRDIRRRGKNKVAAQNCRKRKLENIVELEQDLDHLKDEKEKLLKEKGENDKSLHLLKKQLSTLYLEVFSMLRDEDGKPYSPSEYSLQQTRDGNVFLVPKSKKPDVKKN
The series is described as follows: Induction of Nrf2/ARE activation in human Hela cells at 1 uM measured after 12 to 24 hrs by luciferase reporter gene assay relative to control. As to conditions: filed as activator, time 12-24 hrs. Format: cell-based. For orientation: A reporter such as luciferase makes a cellular process visible.

Series [2] has as its target T1, Nuclear factor erythroid 2-related factor 2 (Homo sapiens). In words: Induction of Nrf2 nuclear translocation in high glucose-induced HUVEC cells at 5 to 10 uM measured after 24 hrs by immunofluorescence staining analysis. Format: cell-based. As to conditions: filed as activator, dose 5-10 µM.
For series [3], the system named is HUVEC. In words: Cytoprotective activity against high glucose-induced HUVEC cell damage assessed as increase in cell viability at 10 uM by SRB assay. It counts as functional, cell-based. As to conditions: Homo sapiens.
The target of series [4] is T1, Nuclear factor erythroid 2-related factor 2 (Homo sapiens). The series is described as follows: Induction of Nrf2/ARE activation in human Hela cells at 20 uM measured after 12 to 24 hrs by luciferase reporter gene assay relative to control. It counts as cell-based. As to conditions: filed as activator, time 12-24 hrs.
Series [5] relates to HUVEC. In words: Cytoprotective activity against oxLDL-induced apoptosis in HUVEC cells measured after 6 hrs by TUNEL assay. It counts as functional, cell-based. As to conditions: Homo sapiens, dose 5-10 µM.
Series [6] relates to HUVEC. The series is described as follows: Cytoprotective activity against high glucose-induced apoptosis in Nrf2-knockdown HUVEC at 10 uM measured after 24 hrs by TUNEL assay. Format: functional, cell-based. As to conditions: Homo sapiens.
Series [7] concerns the target T1, Nuclear factor erythroid 2-related factor 2 (Homo sapiens). The series is described as follows: Induction of Nrf2/ARE activation in human Hela cells at 5 uM measured after 12 to 24 hrs by luciferase reporter gene assay relative to control. It counts as cell-based. The conditions noted are these: filed as activator, time 12-24 hrs.
The test system of series [8] is HUVEC. In words: Cytoprotective activity against oxLDL-induced HUVEC cell damage assessed as increase in cell viability at 10 uM by SRB assay. Format: functional, cell-based. The conditions noted are these: Homo sapiens.
Series [9] addresses T1, Nuclear factor erythroid 2-related factor 2 (Homo sapiens). In words: Induction of Nrf2 nuclear translocation in oxLDL-induced HUVEC cells at 5 to 10 uM measured after 6 hrs by immunofluorescence staining analysis. The conditions noted are these: filed as activator, dose 5-10 µM. Format: cell-based.
Series [10] relates to HUVEC. The series is described as follows: Cytoprotective activity against oxLDL-induced apoptosis in Nrf2-knockdown HUVEC at 10 uM measured after 6 hrs by TUNEL assay. Format: functional, cell-based. As to conditions: Homo sapiens.
Series [11] concerns HUVEC. In words: Cytoprotective activity against high glucose induced apoptosis in HUVEC treated with scambled siRNA at 10 uM measured after 24 hrs by TUNEL assay. As to conditions: Homo sapiens. It counts as functional, cell-based.
Series [12] has as its system HUVEC. In words: Cytoprotective activity against high glucose-induced apoptosis in HUVEC cells measured after 24 hrs by TUNEL assay. Format: functional, cell-based. The conditions noted are these: Homo sapiens, dose 5-10 µM.
The target of series [13] is Keap1/Nrf2 (Homo sapiens) (UniProt Q16236+Q14145). In words: Inhibition of Keap1-Nrf2 protein-protein interaction (unknown origin) at 100 uM measured after 60 mins by FITC-betaAla-DEETGEF-OH probe based fluorescent polarization assay.
Series [14] has as its system HUVEC. In words: Cytoprotective activity against oxLDL-induced apoptosis in HUVEC treated with scambled siRNA at 10 uM measured after 6 hrs by TUNEL assay. Format: functional, cell-based. The conditions noted are these: Homo sapiens.
Series [15] concerns HUVEC. In words: Cytotoxicity against HUVEC assessed as effect on cell viability by SRB assay. Format: toxicity, cell-based. As to conditions: human. (In general: The SRB assay estimates cell density from bound dye.)
Series [16] addresses T1, Nuclear factor erythroid 2-related factor 2 (Homo sapiens). The series is described as follows: Induction of Nrf2/ARE activation in human Hela cells at 10 uM measured after 12 to 24 hrs by luciferase reporter gene assay relative to control. As to conditions: filed as activator, time 12-24 hrs. It counts as cell-based.

Chain of Keap1/Nrf2 (Homo sapiens) (Q14145 whole entry, looked up, one chain of several): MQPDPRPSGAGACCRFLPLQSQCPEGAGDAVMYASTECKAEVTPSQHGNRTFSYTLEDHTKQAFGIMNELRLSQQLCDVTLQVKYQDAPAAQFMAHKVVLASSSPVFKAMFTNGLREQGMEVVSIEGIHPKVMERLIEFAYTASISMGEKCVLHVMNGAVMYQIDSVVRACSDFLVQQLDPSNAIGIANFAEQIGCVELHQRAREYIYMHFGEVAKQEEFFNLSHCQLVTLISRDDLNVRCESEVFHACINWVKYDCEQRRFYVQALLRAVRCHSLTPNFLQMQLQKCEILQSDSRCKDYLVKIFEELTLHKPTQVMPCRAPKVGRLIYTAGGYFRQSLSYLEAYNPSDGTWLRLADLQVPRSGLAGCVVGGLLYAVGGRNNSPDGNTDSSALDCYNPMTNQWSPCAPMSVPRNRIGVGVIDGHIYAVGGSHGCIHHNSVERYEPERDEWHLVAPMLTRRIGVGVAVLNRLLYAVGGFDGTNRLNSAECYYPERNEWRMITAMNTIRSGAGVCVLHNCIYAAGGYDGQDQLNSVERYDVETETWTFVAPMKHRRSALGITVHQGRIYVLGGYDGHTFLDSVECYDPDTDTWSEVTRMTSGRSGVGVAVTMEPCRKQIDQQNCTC

Turning to `COc1ccc(/C=C/C(=O)N2CCN(Cc3noc(Cc4c[nH]c5ccccc45)n3)CC2)cc1O`, the fold change (FC) in series [1] was 1.89; in series [4], 7.41; in [7], 3.69; in [16] it was 7.78. Also, the outcome in series [2], in [3], in series [8], in series [9], in series [11] and in [14] was Active. The results for the Activity entry in series [5], in series [12] and in series [15] were “Dose-Dependent Effect”, “Dose-Dependent Effect” and “Non-Toxic”, respectively. Also, the outcome in series [6] and in series [10] was inactive. For the same compound, the inhibition result in [13] is “inactive”.
Consider `N#Cc1ccc(CN2CCN(Cc3noc(Cc4c[nH]c5ccccc45)n3)CC2)cc1`, for which the fold change (FC) in series [1] stood at 1.38; in series [4] it was 5.18; in series [7], 3.14; in [16], 5.88. Also, the outcome in [2], in [3], in [8] and in [9] was Active. For the same compound, the values for the Activity result in [5], in series [12] and in [15] were “Dose-Dependent Effect”, “Dose-Dependent Effect” and “Non-Toxic”, respectively.
For the compound `COc1cccc(/C=C/C(=O)N2CCN(Cc3noc(Cc4c[nH]c5ccccc45)n3)CC2)c1OC`, the fold change (FC) is 2.15 in [1], 6.37 in series [4], 3.65 in series [7] and 6.91 in [16]. Also, the result in [8] was inactive. In addition, in series [15], the Activity result is listed as “Non-Toxic”.

The record behind these values is ChEMBL document CHEMBL5365471, “Discovery of marine phidianidine-based Nrf2 activators and their potential against oxLDL- and HG-induced injury in HUVECs” (Bioorg Med Chem Lett, 2023).
